US4584300A, “Platelet anti-aggregative- and calcium antagonistic -1,4-benzothiazin-3-one derivatives, compositions, and methods of use therefor” (Santen Pharmaceutical Co., Ltd., priority 1983, dated 1986)
Counter-ions that a name gives are not always drawn.

tested on: blood platelet (rabbit platelet rich plasma); experiment: Anti-aggregatory activity: inhibition of collagen- or ADP-induced platelet aggregation in vitro (PRP); assay type: cell-based; conditions: Oryctolagus cuniculus, 50% inhibition of control response, collagen (3 μg/ml) or ADP (3 μM), table does not say which, 37° C.
Experimental: Blood was obtained from an anesthetized rabbit using 0.1 volumes of 3.8% sodium citrate as anticoagulant. Platelet rich plasma(PRP) was isolated by centrifugation at 650 rpm for 10 minutes at room temperature. After preincubation of PRP (0.25 ml) with various concentrations of test compounds (14 μl) for 1 minute at 37° C., collagen (3 μg/ml:final concentration) or ADP (3 μM:final concentration) was added to induce aggregation and the aggregation profiles were monitored with RIKADENKI six-channel aggregometer. The control experiment contained saline instead of test compound.
The anti-aggregatory activity was represented by the concentration of test compound which elicited 50% inhibition of control response.

COc1ccc(OCCCCN(C)C2CCCCC2)c(C2Sc3ccccc3NC2=O)c1 (stereo not shown) [Compound 57] and COc1ccc(OCCCCN(C)C2CCCCC2)c(C2Sc3ccccc3N(C)C2=O)c1 (stereo not shown) [Compound 63, 3,4-Dihydro-2-[5-methoxy-2-[4-(N-methylcyclohexylamino)butoxy]phenyl]-4-methyl-3-oxo-2H-1,4-benzothiazine oxalate] are the same in IC50: 3.2 µM for the first, 3.2 µM for the second.

Compared with COc1ccc(OCCCN(C)C)c(C2Sc3ccccc3NC2=O)c1 (stereo not shown) [Compound 55, 3,4-dihydro-2-[2-(3-dimethylaminopropoxy)-5-methoxyphenyl]-3-oxo-2H-1,4-benzothiazine], CN(C)CCCOc1ccc(C2Sc3ccccc3NC2=O)cc1 (stereo not shown) [Compound 67] is 2-fold lower in IC50: 3.2 µM for the first, 1.6 µM for the second.

COc1ccc(OCC(O)CNC(C)(C)C)c(C2Sc3ccccc3N(C)C2=O)c1 (stereo not shown) [Compound 106] and COc1ccc(OCC(O)CNC(C)(C)C)c(C2Sc3ccccc3NC2=O)c1 (stereo not shown) [Compound 105, 2-[2-(3-tert-Butylamino-2-hydroxypropoxy)-5-methoxyphenyl]-3,4-dihydro-3-oxo-2H-1,4-benzothiazine] are within 1.5-fold of each other in IC50: 1.3 µM for the first, 1 µM for the second.

COc1ccc(OCCCN(C)C)c(C2Sc3ccccc3N(CCCN(C)C)C2=O)c1 (stereo not shown) [Compound 82, 3,4-Dihydro-2-[2-(3-dimethylaminopropoxy)-5-methoxyphenyl]-4-(3-dimethylaminopropyl)-3-oxo-2H-1,4-benzothiazine dioxalate] and COc1ccc(OCCCCN2CCN(CCc3cc(OC)c(OC)c(OC)c3)CC2)c(C2Sc3ccccc3N(C)C2=O)c1 (stereo not shown) [Compound 78] are within 1.5-fold of each other in IC50: 3.2 µM for the first, 3.5 µM for the second.

Work on COc1ccc(OCCCN2CCN(CC(=O)c3ccccc3)CC2)c(C2Sc3ccccc3NC2=O)c1 (stereo not shown) [Compound 76] yielded an IC50 of 3.2 µM.

tested on: not listed separately; experiment: Acute toxicity test, oral; conditions: mouse, in vivo, orally, male ddy-SLC mice
Experimental: Male ddy-SLC strain mice (4 weeks of age, weighing 19-21 g) were placed in a breeding room of constant temperature and huminity (23±1° C., 55±5%) and fed freely pellet diet and water ad. libitum for a week. Mice showing normal growth were selected for the test. (method of administration)
Test compounds are suspended in 0.5% tragacanth suspention and administered orally in a dose of 0.5 ml/20 g body weight.

Compared with CN1C(=O)C(c2ccc(OCCCN(C)C3CCCCC3)cc2)Sc2ccccc21 (stereo not shown) [Compound 73], COc1ccc(OCCCN2CCN(CCc3cc(OC)c(OC)c(OC)c3)CC2)c(C2Sc3ccccc3N(C)C2=O)c1 (stereo not shown) [Compound 77] is higher in LD50: 500 to 1000 mg/kg for the first, > 1280 mg/kg for the second.

tested on: guinea-pig teania coli; experiment: Calcium-antagonistic activity: inhibition of CaCl2-evoked contraction of isolated guinea-pig teania coli; assay type: tissue-based; conditions: Cavia porcellus, 5 min; 50% inhibition of Ca^++-evoked contraction; CaCl2 3×10^-4 M; 5 minutes exposure; 32° C.
Experimental: The action potentials on the smooth muscles of uterus, teania coli and portal vein are dependent on calcium ion, and therefor these smooth muscle preparations are useful for screening of calcium antagonists. We measured the calcium-antagonistic activity of the compounds by the method using guinea-pig teania coli preparation.
Isolated guinea-pig teania coli was suspended in a 20 ml organ bath with Krebs solution at 32° C. and bubbled with 5% carbon dioxide in oxygen. After equilibration, the muscle was washed with Ca^++ -free Krebs solution, and when the muscle had relaxed to basal level, it was suspended in Ca^++ -free-high-K Krebs solution.
The muscle was exposed to test compounds for 5 minutes before addition of CaCl2, and the contraction evoked by CaCl2 (3×10^-4 M) was recorded isotonically. The calcium-antagonistic activity was represented by the concentration of test compound which elicited 50% inhibition of Ca^++ -evoked contraction (IC50).

COc1ccc(OCCCCN2CCN(CC(=O)c3ccccc3)CC2)c(C2Sc3ccccc3N(C)C2=O)c1 (stereo not shown) [Compound 79] and COc1ccc(OCC(O)CN2CCN(CC(=O)c3ccccc3)CC2)c(C2Sc3ccccc3N(C)C2=O)c1 (stereo not shown) [Compound 107, 3,4-Dihydro-2-[5-methoxy-2-[2-hydroxy-3-(4-phenacylpiperazino)propoxy]phenyl]-4-methyl-3-oxo-2H-1,4-benzothiazine dimaleate] are within 1.5-fold of each other in IC50: 3.9 µM for the first, 3.8 µM for the second.

First: CN(CCCOc1ccc(C2Sc3ccccc3NC2=O)cc1)C1CCCCC1 (stereo not shown) [Compound 68]
Second: CN1C(=O)C(c2ccc(OCCCN(C)C3CCCCC3)cc2)Sc2ccccc21 (stereo not shown) [Compound 73]
The IC50 of the first is 1.8-fold lower: 1.9 µM for the first, 3.4 µM for the second.

First: COc1ccc(OCCCN(C)C2CCCCC2)c(C2Sc3ccccc3N(C)C2=O)c1 (stereo not shown) [Compound 62]
Second: COc1ccc(OCCCCCN(C)C2CCCCC2)c(C2Sc3ccccc3N(C)C2=O)c1 (stereo not shown) [Compound 64]
The IC50 of the first is 1.9-fold lower: 1.6 µM for the first, 3 µM for the second. The first is the more potent here.

First: COc1ccc(OCCCN(C)CCc2ccc(OC)c(OC)c2)c(C2Sc3ccccc3NC2=O)c1 (stereo not shown) [Compound 59]
Second: COc1ccc(OCCCCN2CCN(CCc3cc(OC)c(OC)c(OC)c3)CC2)c(C2Sc3ccccc3NC2=O)c1 (stereo not shown) [Compound 75]
The IC50 of the first is 1.5-fold lower: 2 µM for the first, 3 µM for the second. The first is the more potent here.

COc1ccc(OCCCCCN(C)C2CCCCC2)c(C2Sc3ccccc3NC2=O)c1 (stereo not shown) [Compound 58] and COc1ccc(OCCCN(C)C)c(C2Sc3ccccc3N(C)C2=O)c1 (stereo not shown) [Compound 61] are within 1.5-fold of each other in IC50: 2.6 µM for the first, 2.5 µM for the second.

COc1ccc(CCN2CCN(CCCOc3ccc(C4Sc5ccccc5NC4=O)cc3)CC2)cc1OC (stereo not shown) [Compound 71] and COc1ccc(OCCCN2CCN(CCc3cc(OC)c(OC)c(OC)c3)CC2)c(C2Sc3ccccc3N(C)C2=O)c1 (stereo not shown) [Compound 77] are within 1.5-fold of each other in IC50: 2 µM for the first, 1.6 µM for the second.

COc1ccc(OCCCCN2CCC(C(=O)c3ccccc3)CC2)c(C2Sc3ccccc3N(C)C2=O)c1 (stereo not shown) [Compound 65] and CN(C)CCCOc1ccc(C2Sc3ccccc3N(C)C2=O)cc1 (stereo not shown) [Compound 72, 3,4-Dihydro-2-[4-(3-dimethylaminopropoxy)phenyl]-4-methyl-3-oxo-2H-1,4-benzothiazine] are within 1.5-fold of each other in IC50: 1.8 µM for the first, 2.6 µM for the second.
